Key:
[1] = system: green peach aphid (Myzus persicae); experiment: Myzus persicae test, activity boost by ammonium salts in combination with penetrants; type: in vivo; conditions: bell pepper plants; for Kill rate after 6 days: no additive
Protocol: Example 9: Activity Boost by Ammonium Salts in Combination with Penetrants
(§1) Solvent: 7 parts by weight of dimethylformamide
(§2) Emulsifier: 2 parts by weight of alkylaryl polyglycol ether
(§3) To produce a suitable preparation of active compound, 1 part by weight of active compound is mixed with the stated amounts of solvent and emulsifier, and the concentrate is diluted with water to the desired concentration. For application with ammonium salts and penetrants (rapeseed oil methyl ester 500 EW) these are in each case added in a concentration of 1000 ppm of a.i. to the spray liquor.
Bell pepper plants (Capsicum annuum) heavily infested by the green peach aphid (Myzus persicae) are sprayed to runoff point with the preparation of active compound at the desired concentration. After the desired period of time, the kill in % is determined. 100% means that all animals have been killed; 0% means that none of the animals have been killed.

[2] = Penetration of active compounds through enzymatically isolated cuticles of apple tree leaves; type: in vitro ADME, apple trees of the cultivar Golden Delicious; conditions: 300 ppm in DMF/emulsifier W 7:1 (w/w), 20° C., 60% rh; for Penetration after 24 h, EC + RME (1 g/l) + AS (1 g/l): + RME 1 g/l + ammonium sulphate 1 g/l; for Penetration after 24 h, EC + RME (1 g/l) + DAHP (1 g/l): + RME 1 g/l + diammonium hydrogenphosphate 1 g/l; for Penetration after 24 h, EC + AS (1 g/l): + ammonium sulphate 1 g/l; for Penetration after 24 h, EC + DAHP (1 g/l): + diammonium hydrogenphosphate 1 g/l; for Penetration after 24 h, EC + RME (1 g/l): + rapeseed oil methyl ester 1 g/l; for Penetration after 24 h, EC: EC alone
Protocol: Example 8: Increase of Penetration into the Plant by Ammonium or Phosphonium Salts and Synergistic Increase of Penetration into the Plant by Ammonium Salts in Combination with Penetrants
In this test, the penetration of active compounds through enzymatically isolated cuticles of apple tree leaves is measured.
Use is made of leaves which, fully developed, are cut from apple trees of the cultivar Golden Delicious. The cuticles are isolated by • initially filling leaf discs punched out and stained with dye on the underside by vacuum infiltration with a pectinase solution (0.2 to 2% strength) buffered to pH between 3 and 4, • then adding sodium azide and • allowing the leaf discs treated in this manner to stand until the original leaf structure has dissolved and the non-cellular cuticles have detached.
Only the cuticles, free from hairs and stoma, of the upper sides of the leaves are then used further. They are washed repeatedly alternately with water and a buffer solution of pH 7. The clean cuticles obtained are then mounted on Teflon plates and smoothed and dried with a gentle stream of air.
In the next step, the cuticle membranes obtained in this manner are placed into stainless steel diffusion cells (=transport chambers) for membrane transport studies. To this end, the cuticles are placed with a pincette into the centre of the edges, coated with silicone fat, of the diffusion cells and closed with a ring, which is also treated with fat. The arrangement is chosen such that the morphological outside of the cuticles is facing outwards, i.e. is exposed to air, whereas the original inside is facing the interior of the diffusion cell.
The diffusion cells are filled with a 30% strength ethylene glycol/water solution. To determine the penetration, in each case 10 μl of the spray liquor of the composition below are applied to the outside of the cuticles. The spray liquor is prepared using local tap water of medium hardness.
After the application of the spray liquors, the water is allowed to evaporate and the chambers are inverted and placed into thermostated tubs in which the temperature and atmospheric humidity over the cuticles can be adjusted using a gentle stream of air onto the cuticles with the spray coating (20° C., 60% rh). At regular intervals, an autosampler takes aliquots and the active compound content is determined by HPLC.
The stated numbers are average values of 8 to 10 measurements. It is clearly evident that even ammonium sulphate on its own improves the penetration markedly, and that, together with RME, a superadditive (synergistic) effect is present.

[3] = system: cotton aphid (Aphis gossypii); experiment: Aphis gossypii test; type: in vivo; conditions: cotton plants; for Kill rate after 6 days: no additive
Protocol: as §1, §2
as §3, with “diluted with emulsifier-containing water to” for “diluted with water to”, “oil methyl esters 500 EW)” for “oil methyl ester 500 EW)”
Cotton plants (Gossypium hirsutum) which are heavily infested by the cotton aphid (Aphis gossypii) are sprayed to runoff point with the preparation of active compound at the desired concentration.
After the desired period of time, the kill in % is determined. 100% means that all aphids have been killed; 0% means that none of the aphids have been killed.

[4] = system: larva of the mustard beetle (Phaedon cochleariae); experiment: Phaedon test (PHAECO spray treatment); type: in vivo; conditions: application rate 500 g/ha, Chinese cabbage leaf discs, after 7 days
Protocol: Phaedon Test ([…] Spray Treatment) Solvents: 78.0 parts by weight of acetone • • 1.5 parts by weight of dimethylformamide Emulsifier: 0.5 part by weight of alkylaryl polyglycol ether To produce a suitable preparation of active compound, one part by weight of active compound is mixed with the stated amounts of solvents and emulsifier, and the concentrate is diluted with emulsifier-containing water to the desired concentration. Discs of Chinese cabbage (Brassica pekinensis) are sprayed with an active compound preparation of the desired concentration and, after drying, populated with larva of the mustard beetle (Phaedon cochleariae).

[5] = system: Boophilus microplus; experiment: Boophilus microplus test (BOOPMI injection); type: in vivo; conditions: application rate 20 μg/animal; injection into the abdomen; after 7 days
Protocol: Boophilus microplus Test (BOOPMI Injection)
Solvent: Dimethyl sulphoxide
To produce a suitable preparation of active compound, 10 mg of active compound are mixed with 0.5 ml of solvent and the concentrate is diluted with solvent to the desired concentration. The solution of active compound is injected into the abdomen (Boophilus microplus) and the animals are transferred into dishes and stored in a climatized room. The activity is monitored for deposition of fertile eggs.
After 7 days, the effect in % is determined. 100% means that none of the ticks has laid any fertile eggs.

[6] = system: green peach aphid (Myzus persicae); experiment: Myzus test (MYZUPE spray treatment); type: in vivo; conditions: application rate 500 g/ha, Chinese cabbage leaf discs, after 6 days
Protocol: Myzus Test (MYZUPE Spray Treatment)
Solvents: 78 parts by weight of acetone
• 1.5 parts by weight of dimethylformamide Emulsifier: 0.5 part by weight of alkylaryl polyglycol ether
To produce a suitable preparation of active compound, 1 part by weight of active compound is mixed with the stated amounts of solvents and emulsifier, and the concentrate is diluted with emulsifier-containing water to the desired concentration. Discs of Chinese cabbage (Brassica pekinensis) which are infested by all stages of the green peach aphid (Myzus persicae) are sprayed with an active compound preparation of the desired concentration. After 6 days, the effect in % is determined. 100% means that all aphids have been killed; 0% means that none of the aphids have been killed.

| SMILES | Kill rate after 6 days, +AS (1000 ppm) ([1]; 4 ppm) | Kill rate after 6 days, +RME (1000 ppm) ([1]; 4 ppm) | Kill rate after 6 days, +RME + AS (1000 ppm each) ([1]; 4 ppm) | Kill rate after 6 days ([1]; 4 ppm) | Penetration after 24 h, EC + RME (1 g/l) + AS (1 g/l) [2] | Penetration after 24 h, EC + RME (1 g/l) + DAHP (1 g/l) [2] | Penetration after 24 h, EC + AS (1 g/l) [2] | Penetration after 24 h, EC + DAHP (1 g/l) [2] | Penetration after 24 h, EC + RME (1 g/l) [2] | Penetration after 24 h, EC [2] | Kill rate after 6 days, +AS (1000 ppm) ([3]; 20 ppm) | Kill rate after 6 days, +RME (1000 ppm) ([3]; 20 ppm) | Kill rate after 6 days, +RME + AS (1000 ppm each) ([3]; 20 ppm) | Kill rate after 6 days ([3]; 20 ppm) | efficacy (effect in %, beetle larva killed) [4] | efficacy (effect in %, 100% = none of the ticks has laid any fertile eggs) [5] | efficacy (effect in %, aphids killed) [6] | other results |
| --- | --- | --- | --- | --- | --- | --- | --- | --- | --- | --- | --- | --- | --- | --- | --- | --- | --- | --- |
| CON1CCC2(CC1)NC(=O)C(c1c(C)ccc(-c3ccc(F)cc3)c1C)=C2O [I-a-1] | 30% | 55% | 100% | 0% | 19% | 15% | 3.8% | 2.3% | 0.8% | <0.2% | 40% | 55% | 100% | 0% | 83% | 95% | 90% | Kill rate after 6 days, +AS (1000 ppm) ([1]; 20 ppm): 90%; Kill rate after 6 days, +RME (1000 ppm) ([1]; 20 ppm): 95%; Kill rate after 6 days, +RME + AS (1000 ppm each) ([1]; 20 ppm): 100%; Kill rate after 6 days ([1]; 20 ppm): 60% |
| CCON1CCC2(CC1)NC(=O)C(c1c(C)ccc(-c3ccc(F)cc3)c1C)=C2O [I-a-2] | 20% | 95% | 95% | 0% | 17% | 21% | 3.8% | 3.9% | 1.7% | 1.4% | 25% | 20% | 90% | 0% | 100% | 90% | 100% | Kill rate after 6 days, +AS (1000 ppm) ([1]; 0.8 ppm): 0%; Kill rate after 6 days, +RME (1000 ppm) ([1]; 0.8 ppm): 0%; Kill rate after 6 days, +RME + AS (1000 ppm each) ([1]; 0.8 ppm): 40%; Kill rate after 6 days ([1]; 0.8 ppm): 0%; Kill rate after 6 days, +AS (1000 ppm) ([3]; 4 ppm): 0%; Kill rate after 6 days, +RME (1000 ppm) ([3]; 4 ppm): 0%; Kill rate after 6 days, +RME + AS (1000 ppm each) ([3]; 4 ppm): 45%; Kill rate after 6 days ([3]; 4 ppm): 0% |

Source: US9809542B2, “Spiroheterocyclically substituted tetramic acid derivatives” (BAYER INTELLECTUAL PROPERTY GMBH, priority 2010, dated 2017)
